Experiments:
antibody 144A = experiment: MPA radioimmunoassay, specificity of antibody 144A; type: binding, rabbit
Description: Antibody 144A was raised in rabbits against 17-hydroxyprogesterone-3-0-carboxymethyloxime-BSA. The labeled steroid used in the radioimmunoassay (RIA) was methyl-17α-hydroxyprogesterone acetate, 6α-[1,2-^3 H(N)]- obtained from NEN (CAT NO: NET 480) while the reference preparation was medroxyprogesterone acetate (MPA) obtained from Steraloids. The assay buffer used was 0.1% gelatin in 0.1M sodium phosphate, 0.15M sodium chloride, 0.1% sodium azide, pH 7.2. The extraction solvent mixture was ethyl ether-acetone (9:1, v:v) [EEA] while the LH-20 chromatography solvent mixture was iso-octane: toluene: methanol (90:5:5;v:v:v) [IOTH].
One ml of plasma was extracted twice with 5 ml of EEA. The extracts were evaporated to dryness with nitrogen and the remaining residue was dissolved in one ml of IOTH. The extracts were then subjected to LH-20 chromatography on […] columns (Coming CAT NO: 05 722A) filled with 2 g of LH-20 (Pharmacia). The gel was washed with 30 ml of IOTH before addition of one ml of sample and elution with IOTH. The first 6 ml were discarded. The following 10, 16.5 and 27.5 ml of eluent were fraction I (progesterone), II (MPA) and III (17-LH-progesterone), respectively. Fraction II was evaporated to dryness and reconstituted in 1.5 ml of assay buffer.
To each 12 x 75 mm borosilicate test tube was added: 0.2 ml containing 25,000 DPM of tritiated steroid, 0.5 ml of reference preparation ranging from 5 to 5000 pg/tube or 0.5 ml of extracted sample fraction II, 0.2 ml of antiserum 144A diluted 1/5000 or 0.2 ml of assay buffer to account for non specific binding. The tubes were then incubated overnight at 4° C. Then, 0.2 ml 2% charcoal Norit-A, 0.2% Dextran T-70 diluted in water was added. The tubes were then shaken gently and, after 10 min, they were centrifuged at 2000 x g for 10 min. The supernatant was mixed with 8 ml of Formula-989 (NEN: NEF-989) and the radioactivity was counted in a β-counter.

breast cancer [1] = settings: in vivo; cited from earlier work
masculinizing activity = settings: low blood concentrations; cited from earlier work
[2] = tested on: human breast cancer ZR-75-1 cells, androgen receptor; experiment: Androgenic (androgen receptor) activity in ZR-75-1 cells: cell growth and GCDFP-15/GCDFP-24 secretion; type: cell-based; settings: for androgenic activity: ZR-75-1 cells, low concentrations
Protocol: Maintenance of stock cultures The ZR-75-1 human breast cancer cell line can be obtained from the American Type Culture Collection (Rockville, Md.). The cells are routinely cultured in phenol red-free RPMI 1640 medium supplemented with 10 nM E2, 15 mM Hepes, 2 mM L-glutamine, 1 mM sodium pyruvate, 100 IU penicillin per ml, 100 μg streptomycin sulfate per ml, and 10% (v/v) fetal bovine serum (FBS), in a water-saturated atmosphere of 95% air: 5% CO2 at 37° C.
Stock cultures in their logarithmic growth phase are harvested with 0.05% trypsin/0.02% EDTA (w/v) in Hanks' balanced salts solution and resuspended in E2- and phenol red-free RPMI 1640 medium containing 5% (v/v) dextran-coated charcoal (DCC)-treated FBS and 500 ng of bovine insulin per ml, but otherwise supplemented as described above for maintenance of stock cultures. Cells were plated in 24-well Linbro culture plates (Flow Laboratories) at a final density of 0.5-4.0×10^4 cells/well.
Fourty-eight hours after plating, fresh SD medium containing the appropriate concentrations of steroids are added. […] The incubation media are replaced every other day and cells are harvested by trypsinization after 12 days of treatment, unless otherwise indicated. Cell number can be determined with a Coulter Counter.
Calculations and statistical analyses Apparent IC50 values are calculated using an iterative least squares regression (Rodbard, Endocrinology 94:1427-1437,1974), while apparent inhibition constants (Ki values) are calculated according to Cheng and Prusoff (Biochem. Pharmacol. 22: 3099-3108,1973).
In addition to inhibition of cell growth, the secretion of two glycoproteins, namely gross cystic disease fluid protein-15 (GCDFP-15) and GCDFP-24 is markedly stimulated by androgens (Simard et al., Mol. Endocrinol. 3: 694-702, 1989; Simard et al., Endocrinology 126: 3223-3231, 1990).
To assist in determining the activity of the potential compounds on the various steroid receptors, androgen, glucocorticoid, progesterone and estrogen-receptor-mediated activities of synthetic progestins and anabolic steroids can be measured in ZR-75-1 human breast cancer cells using cell growth as well as GCDFP-15 and GCDFP-24 release as parameters of response (Poulin and Labrie, Cancer Res. 46: 4933-4937, 1986; Poulin et al., Breast Cancer Res. Treatm. 12: 213-225, 1988; Poulin et al., Breast Cancer Res. Treatm. 13: 161-172, 1989; Poulin et al., Breast Cancer Res. Treatm. 13: 265-276, 1989; Simard et al., Mol. Endocrinol. 3: 694-702, 1989; Simard et al., Endocrinology 126: 3223-3231, 1990).
In order to analyze the interactions of synthetic progestins or anabolic steroids with the androgen receptor (AR) and glucocorticoid receptor (GR) in their inhibitory action on cell growth, one takes advantage of the additivity of the anti-proliferative effects of androgens and glucocorticoids in this cell line (Poulin et al., Breast Cancer Res. Treatm. 12: 213-225, 1988; Hatton and Labrie, F., unpublished data). […] On the other hand, the effect of a putative androgen can similarly be measured following saturation of GR by dexamethasone (DEX). […] Thus, in the presence of excess androgen (1 μM DMT) in the presence of E2 and insulin, glucocorticoid effects can be assessed with precision and with no interference by the other receptors. The same applies to study of the role of AR when the cells are incubated in the presence of excess glucocorticoid (3 μM DEX), in the presence of E2 and insulin.

[3] = tested on: DMBA-induced mammary carcinoma; settings: cited from earlier work
breast cancer [4] = settings: cited from earlier work
bone = settings: cited from earlier work
breast cancer [5] = settings: cited from earlier work; remark: listed apart in the source
[6] = E2-treated ovariectomized rats, with or without DHT

For `C[C@]12CC[C@@H](O)C[C@@H]1CC[C@@H]1[C@@H]2CC[C@]2(C)[C@@H](O)CC[C@@H]12` [3α-diol], the “cross-reactivity with antibody 144A” value (antibody 144A) was “less than 0.1%”.

With `CC(=O)[C@@]1(O)CC[C@H]2[C@@H]3CC=C4C[C@@H](O)CC[C@]4(C)[C@H]3CC[C@@]21C` [17-OH-pregnenolone] the “cross-reactivity with antibody 144A” value (antibody 144A) was “less than 0.1%”.

With `C[C@H](O)[C@H]1CC[C@H]2[C@@H]3CCC4=CC(=O)CC[C@]4(C)[C@H]3CC[C@]12C` [20α-OH-Prog] the “cross-reactivity with antibody 144A” value (antibody 144A) was “less than 0.1%”.

For `CC/C(=C(/CC)c1ccc(O)cc1)c1ccc(O)cc1` [DES], the “objective remissions in breast cancer” value (breast cancer [1]) is given as “effective in producing objective remissions”.

In the case of `C[C@]12CCC(=O)C[C@@H]1CC[C@@H]1[C@@H]2CC[C@]2(C)[C@@H](O)CC[C@@H]12` [DHT, 5α-dihydrotestosterone], the masculinizing activity (masculinizing activity) is given as “considerable masculinizing activity even at low blood concentrations” and the “concentration exerting maximal inhibitory effect on the AR” value ([2]; detailed kinetic studies, ZR-75-1) is given as 1 µM.

In the case of `C[C@]12CC[C@@H]3c4ccc(O)cc4CC[C@H]3[C@@H]1CC[C@@H]2O` [E2, 17β-estradiol], the “number of new tumors per rat” value ([3]; 28-day observation period, E2-treated animals, with or without DHT) is listed as 1.5±0.3 per rat, the “complete responses (disappearance of palpable tumors)” value [3, 6] is listed as 11.5% and the progressing tumors [3, 6] is listed as 69.2%. For the same compound, the “cross-reactivity with antibody 144A” value (antibody 144A) was “less than 0.1%”.

For `CC(C)C(=O)Nc1ccc([N+](=O)[O-])c(C(F)(F)F)c1` [Flutamide], the “effect on DHT action” value ([3]; simultaneous treatment with DHT) is given as “completely prevented DHT action”.

For `C[C@]12CC[C@H]3[C@@H](CCC4=CC(=O)CC[C@@H]43)[C@@H]1CC[C@@H]2O` [Nor-testosterone], the androgenic activity [2] was “possess androgenic activity at low concentrations”.

For `CC/C(=C(\c1ccccc1)c1ccc(OCCN(C)C)cc1)c1ccccc1` [Tamoxifen], the “median time from onset of therapy to treatment failure” value (breast cancer [4]; in vivo) is listed as 64 days, the non-responders (breast cancer [4]; in vivo) is listed as 50% and the “partial response (PR)” value (breast cancer [4]; in vivo) is listed as 15%. For the same compound, the survival (breast cancer [4]; tendency for improved survival) was 330 days.

For `C[C@]12CCC(=O)C=C1CC[C@@H]1[C@@H]2CC[C@]2(C)C(=O)CC[C@@H]12` [androstenedione], the “cross-reactivity with antibody 144A” value (antibody 144A) was “less than 0.1%”.

In the case of `C[C@H]1CC2=CC(=O)CC[C@]2(C)[C@H]2CC[C@@]3(C)[C@@H](CC[C@]3(C)O)[C@H]12` [calusterone, 7β,17α-dimethyltestosterone], the androgenic activity [2] is reported as “possess androgenic activity at low concentrations”.

For `CC(=O)O[C@]1(C(C)=O)CC[C@H]2[C@@H]3C=C(Cl)C4=CC(=O)CC[C@]4(C)[C@H]3CC[C@@]21C` [chlormadinone acetate], the androgenic activity [2] was “possess androgenic activity at low concentrations”.

In the case of `C[C@]12CCC(=O)C=C1CC[C@@H]1[C@@H]2[C@@H](O)C[C@@]2(C)[C@H]1CC[C@]2(O)C(=O)CO` [cortisol], the “cross-reactivity with antibody 144A” value (antibody 144A) is reported as “less than 0.1%”.

In the case of `C#C[C@]1(O)CC[C@H]2[C@@H]3CCC4=Cc5oncc5C[C@]4(C)[C@H]3CC[C@@]21C` [danazol], the androgenic activity [2] is reported as “possess androgenic activity at low concentrations”.

With `C[C@@H]1C[C@@]2(C)[C@@H](CC[C@@H]3[C@@H]2CC[C@]2(C)[C@@H](O)CC[C@@H]32)CC1=O` [dromostanolone] the androgenic activity [2] was “possess androgenic activity at low concentrations”.

In the case of `C[C@]12CC[C@@H]3c4ccc(O)cc4CC[C@H]3[C@@H]1CCC2=O` [estrone], the “cross-reactivity with antibody 144A” value (antibody 144A) is reported as “less than 0.1%”.

In the case of `C#C[C@]1(O)CC[C@H]2[C@@H]3CCC4=CC(=O)CC[C@]4(C)[C@H]3CC[C@@]21C` [ethisterone], the androgenic activity [2] is reported as “possess androgenic activity at low concentrations”.

In the case of `C[C@]12C=CC(=O)C=C1CC[C@@H]1[C@@H]2CC[C@@]2(C)[C@H]1CC[C@]2(C)O` [methandrostanolone], the “effect on postmenopausal osteoporosis (total body calcium)” value (bone; 24-26 months, double-blind) is given as “positive and relatively long-term” and the androgenic activity [2] is given as “possess androgenic activity at low concentrations”.

In the case of `CCCCCCC(=O)O[C@H]1CC[C@H]2[C@@H]3CC[C@H]4CC(=O)C=C(C)[C@]4(C)[C@H]3CC[C@]12C` [methonolone enanthate], the response rate (breast cancer [5]; 13 of 27 patients) is listed as 48%, the “median duration of survival, non-responders” value (breast cancer [5]; non-responder group) is listed as 7.5 months and the “median duration of survival, responders” value (breast cancer [5]; responders) is listed as 27 months.

For `C[C@]12COC(=O)C[C@@H]1CC[C@@H]1[C@@H]2CC[C@@]2(C)[C@H]1CC[C@]2(C)O` [oxandrolone], the androgenic activity [2] was “possess androgenic activity at low concentrations”.

With `C[C@]12C/C(=C/O)C(=O)C[C@@H]1CC[C@@H]1[C@@H]2CC[C@@]2(C)[C@H]1CC[C@]2(C)O` [oxymetholone] the androgenic activity [2] was “possess androgenic activity at low concentrations”.

With `CC(=O)[C@H]1CC[C@H]2[C@@H]3CC=C4C[C@@H](O)CC[C@]4(C)[C@H]3CC[C@]12C` [pregnenolone] the “cross-reactivity with antibody 144A” value (antibody 144A) was “less than 0.1%”.

For `CC(=O)[C@H]1CC[C@H]2[C@@H]3CCC4=CC(=O)CC[C@]4(C)[C@H]3CC[C@]12C` [progesterone], the “cross-reactivity with antibody 144A” value (antibody 144A) was “less than 0.1%”.

For `C[C@]12Cc3c[nH]nc3C[C@@H]1CC[C@@H]1[C@@H]2CC[C@@]2(C)[C@H]1CC[C@]2(C)O` [stanozolol], the bone mass (bone; in vivo) is listed as “increase in total bone mass”, the side effects (bone; randomized study in postmenopausal women) is listed as “side effects were recorded in the majority of patients” and the androgenic activity [2] is listed as “possess androgenic activity at low concentrations”.

For `CCC(=O)O[C@H]1CC[C@H]2[C@@H]3CCC4=CC(=O)CC[C@]4(C)[C@H]3CC[C@]12C` [testosterone propionate], the “effect in pre- and post-menopausal women” value (breast cancer [1]) is given as “beneficial effects in both pre- and post-menopausal women”, the “objective remissions in breast cancer” value (breast cancer [1]) is given as “effective in producing objective remissions” and the “remission rate and duration, quality of life and survival” value (breast cancer [1]) is given as “improved remission rate and duration, quality of life and survival”.

In the case of Vitamin D, the “bone resorption, osteoporotic women” value (bone; in vivo) is given as “only reduced bone resorption”.

— US5861387A, “Controlled release systems and low dose androgens” (Endorecherche Inc., priority 1995, dated 1999)
